pEC50, pIC50: −log10 of the molar value.
Tests used:
[1] = Inhibition of MT4 cell viability; type: cell-based; conditions: human, MT4 cells
[2] = biological target: T1, Human immunodeficiency virus type 1 reverse transcriptase (Human immunodeficiency virus 1, UniProt Q72547); assay: Inhibition of FLAG-p66/HIS-p51-mediated HIV1 reverse transcriptase dimerization
[3] = test system: Human immunodeficiency virus 1; assay: Antiviral activity against HIV1 in MT4 cells; type: functional, organism-based; conditions: Human immunodeficiency virus 1, MT4
[4] = biological target: T1, Human immunodeficiency virus type 1 reverse transcriptase; assay: Inhibition of HIV1 reverse transcriptase RNA-dependent DNA polymerase activity

pIC50 [2]	pEC50 [3]	pIC50 [4]	SMILES	CC50 [1] [µM]
4.92	5.24	5.51	Cc1cn([C@@H]2O[C@H](CO[Si](C)(C)C(C)(C)C)[C@@]3(OS(=O)(=O)C=C3N)[C@H]2O[Si](C)(C)C(C)(C)C)c(=O)n(CC(=O)N[C@@H](C)C(=O)O)c1=O	> 250
5.37	6.59	6.30	CCCn1c(=O)c(C)cn([C@@H]2O[C@H](CO[Si](C)(C)C(C)(C)C)[C@@]3(OS(=O)(=O)C=C3N)[C@H]2O[Si](C)(C)C(C)(C)C)c1=O	75
5.14	5.35	5.27	COC(=O)C(=O)NC1=CS(=O)(=O)O[C@@]12[C@@H](COCc1ccccc1)O[C@@H](n1cc(C)c(=O)n(C)c1=O)[C@@H]2O[Si](C)(C)C(C)(C)C	4
4.92	5.20	5.04	Cc1cn([C@@H]2O[C@H](CO[Si](C)(C)C(C)(C)C)[C@@]3(OS(=O)(=O)C=C3N)[C@H]2O[Si](C)(C)C(C)(C)C)c(=O)n(CC(=O)N[C@@H](CC(=O)O)C(=O)O)c1=O	> 250
5.72	7.40	6.30	Cc1cn([C@@H]2O[C@H](CO[Si](C)(C)C(C)(C)C)[C@@]3(OS(=O)(=O)C=C3N)[C@H]2O[Si](C)(C)C(C)(C)C)c(=O)n(/C=C/CO)c1=O	4
4.80	5.18	5.32	Cc1cn([C@@H]2O[C@H](CO[Si](C)(C)C(C)(C)C)[C@@]3(OS(=O)(=O)C(/C=C/CO)=C3N)[C@H]2O[Si](C)(C)C(C)(C)C)c(=O)[nH]c1=O	17
4.85	6.02	5.42	Cc1cn([C@@H]2O[C@H](CO[Si](C)(C)C(C)(C)C)[C@@]3(OS(=O)(=O)C=C3N=C(N)N)[C@H]2O[Si](C)(C)C(C)(C)C)c(=O)[nH]c1=O	87
5.18	5.27	5.18	Cc1cn([C@@H]2O[C@H](CO[Si](C)(C)C(C)(C)C)[C@@H](O)[C@H]2O[Si](C)(C)C(C)(C)C)c(=O)n(CC(=O)O)c1=O	19
5.30	6.96	5.62	Cc1cn([C@@H]2O[C@H](CO[Si](C)(C)C(C)(C)C)[C@@]3(OS(=O)(=O)C=C3N)[C@H]2O[Si](C)(C)C(C)(C)C)c(=O)n(CC2CO2)c1=O (stereo partly specified)	56
5.96	5.19	5.24	Cc1cn(C2OC(CO[Si](C)(C)C(C)(C)C)CC2O[Si](C)(C)C(C)(C)C)c(=O)n(CC(=O)O)c1=O (stereo unspecified)	17
5.46	6.92	5.10	Cc1cn([C@@H]2O[C@H](CO[Si](C)(C)C(C)(C)C)[C@@]3(OS(=O)(=O)C(I)=C3N)[C@H]2O[Si](C)(C)C(C)(C)C)c(=O)[nH]c1=O	4
5.00	6.28	5.08	CC(C)(C)[Si](C)(C)OC[C@H]1O[C@@H](n2nncc2C(N)=O)[C@H](O[Si](C)(C)C(C)(C)C)[C@]12OS(=O)(=O)C=C2N	15
4.93	7.40	5.19	CN(C)C(=O)c1cnnn1[C@@H]1O[C@H](CO[Si](C)(C)C(C)(C)C)[C@@]2(OS(=O)(=O)C=C2N)[C@H]1O[Si](C)(C)C(C)(C)C	12
5.51	6.49	5.80	Cc1cn([C@@H]2O[C@H](CO[Si](C)(C)C(C)(C)C)[C@@]3(OS(=O)(=O)C=C3N)[C@H]2O[Si](C)(C)C(C)(C)C)c(=O)n(/C=C\CO)c1=O	36

SMILES	pIC50 [2]	pEC50 [3]	pIC50 [4]	CC50 [1] [µM]
CNC(=O)CCCCn1c(=O)c(C)cn([C@@H]2O[C@H](CO[Si](C)(C)C(C)(C)C)[C@@]3(OS(=O)(=O)C=C3N)[C@H]2O[Si](C)(C)C(C)(C)C)c1=O	5.17	7.30	5.49	> 250
Cc1cn([C@@H]2O[C@H](CO[Si](C)(C)C(C)(C)C)[C@@]3(OS(=O)(=O)C=C3N)[C@H]2O[Si](C)(C)C(C)(C)C)c(=O)n(C)c1=O	5.24	7.22	5.89	240
Cc1cn([C@@H]2O[C@H](CO[Si](C)(C)C(C)(C)C)[C@@]3(OS(=O)(=O)C=C3N)[C@H]2O[Si](C)(C)C(C)(C)C)c(=O)n(CCCN(CC(=O)O)CC(=O)O)c1=O	5.28	5.08	4.97	123
Cc1cn([C@@H]2O[C@H](CO[Si](C)(C)C(C)(C)C)[C@@]3(OS(=O)(=O)C=C3N)[C@H]2O[Si](C)(C)C(C)(C)C)c(=O)n(CCCN)c1=O	5.14	6.28	5.36	14
Cc1cn([C@@H]2O[C@H](CO[Si](C)(C)C(C)(C)C)[C@@]3(OS(=O)(=O)C=C3N)[C@H]2O[Si](C)(C)C(C)(C)C)c(=O)n(CCc2ccccc2)c1=O	5.52	6.08	6.10	2
Cc1cn([C@@H]2O[C@H](CO[Si](C)(C)C(C)(C)C)[C@@]3(OS(=O)(=O)C=C3N)[C@H]2O[Si](C)(C)C(C)(C)C)c(=O)n(CC(=O)O)c1=O	5.26	5.21	5.49	> 155
CCc1cn([C@@H]2O[C@H](CO[Si](C)(C)C(C)(C)C)[C@@]3(OS(=O)(=O)C=C3N)[C@H]2O[Si](C)(C)C(C)(C)C)c(=O)[nH]c1=O	5.07	7.22	5.47	20
Cc1cn([C@@H]2O[C@H](CO[Si](C)(C)C(C)(C)C)[C@@]3(OS(=O)(=O)C=C3N)[C@H]2O[Si](C)(C)C(C)(C)C)c(=O)n(CCCO)c1=O	5.80	7.52	6.15	4
Cc1cn([C@@H]2O[C@H](CO[Si](C)(C)C(C)(C)C)[C@@]3(OS(=O)(=O)C=C3N)[C@H]2O[Si](C)(C)C(C)(C)C)c(=O)[nH]c1=O	5.17	7.22	6.00	14
Cc1cn([C@@H]2O[C@H](CO[Si](C)(C)C(C)(C)C)[C@@]3(OS(=O)(=O)C=C3N)[C@H]2O[Si](C)(C)C(C)(C)C)c(=O)n(CC(N)=O)c1=O	5.15	7.15	5.77	18
